For experiment [1], the target named is T1, human MetAP2 enzyme (Homo sapiens, UniProt P50579). Kind of experiment: MetAP2 enzyme assay, enzyme complexed with cobalt ions. Conditions: MetAP2 Co pIC50, MetAP2 enzyme complexed with cobalt ions; Met-AMC substrate at Km.
Experiment [2] addresses T1, human MetAP2 enzyme. Kind of experiment: MetAP2 enzyme assay, enzyme complexed with manganese ions. As to conditions: MetAP2 Mn pIC50, MetAP2 enzyme complexed with manganese ions; Met-AMC substrate at Km.

Usually IC50 stands for the concentration that gives 50% inhibition. Higher therefore signals weaker potency.

T1 sequence (P50579 whole entry): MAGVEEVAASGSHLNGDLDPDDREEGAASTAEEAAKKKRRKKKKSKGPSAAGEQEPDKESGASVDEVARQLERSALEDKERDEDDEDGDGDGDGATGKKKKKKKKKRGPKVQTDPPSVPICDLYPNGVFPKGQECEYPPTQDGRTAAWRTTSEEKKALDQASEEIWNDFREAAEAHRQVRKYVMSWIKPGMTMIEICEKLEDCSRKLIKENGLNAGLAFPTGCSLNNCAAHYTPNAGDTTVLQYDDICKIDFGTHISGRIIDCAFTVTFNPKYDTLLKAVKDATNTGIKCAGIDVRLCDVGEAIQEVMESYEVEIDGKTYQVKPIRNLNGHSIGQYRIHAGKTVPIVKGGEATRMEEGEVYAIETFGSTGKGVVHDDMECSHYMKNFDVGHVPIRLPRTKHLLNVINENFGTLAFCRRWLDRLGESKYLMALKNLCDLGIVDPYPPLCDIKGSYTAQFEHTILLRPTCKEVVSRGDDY

For the molecule `CS(=O)(=O)c1cccc(-c2cc(C(F)(F)F)cc3[nH]ncc23)c1` [Example 103, 4-(3-(methylsulfonyl)phenyl)-6-(trifluoromethyl)-1H-indazole], the IC50 on human MetAP2 enzyme [1] was 0.0501 µM; against human MetAP2 enzyme [2], 0.00631 µM.
On the same counts, the results for `CNS(=O)(=O)c1cccc(-c2cc(C(F)(F)F)cc3[nH]ncc23)c1` [Example 104, N-methyl-3-(6-(trifluoromethyl)-1H-indazol-4-yl)benzenesulfonamide] are 0.316 µM and 0.0398 µM.
Taken in the same sequence, the figures for `CS(=O)(=O)c1cncc(-c2cc(C(F)(F)F)cc3[nH]ncc23)c1` [Example 105, 4-(5-(methylsulfonyl)pyridin-3-yl)-6-(trifluoromethyl)-1H-indazole] were 0.316 µM and 0.01 µM.
Regarding `OCCc1cccc(-c2cc(C(F)(F)F)cc3[nH]ncc23)c1` [Example 106, 2-(3-(6-(trifluoromethyl)-1H-indazol-4-yl)phenyl)ethanol], the IC50 on human MetAP2 enzyme [1] is 0.158 µM; on human MetAP2 enzyme [2], 0.0126 µM.
On the same counts, the results for `FC(F)(F)c1cc(-c2ccc3scnc3c2)c2cn[nH]c2c1` [Example 107, 5-(6-(trifluoromethyl)-1H-indazol-4-yl)benzo[d]thiazole] are 0.0316 µM and 0.00501 µM.
As for `CN(C)S(=O)(=O)c1cccc(-c2cc(C(F)(F)F)cc3[nH]ncc23)c1` [Example 108, N,N-dimethyl-3-(6-(trifluoromethyl)-1H-indazol-4-yl)benzenesulfonamide], the IC50 against human MetAP2 enzyme [1] was 0.0794 µM; against human MetAP2 enzyme [2] it was 0.0126 µM.
Taken in the same sequence, the figures for `O=C(NCCO)c1ccc(-c2cc(C(F)(F)F)cc3[nH]ncc23)cc1F` [Example 109, 2-fluoro-N-(2-hydroxyethyl)-4-(6-(trifluoromethyl)-1H-indazol-4-yl)benzamide] were 0.0501 µM and 0.00316 µM.
Taken in the same sequence, the figures for `NC(=O)c1cc(-c2cc(C(F)(F)F)cc3[nH]ncc23)ccc1F` [Example 110, 2-fluoro-5-(6-(trifluoromethyl)-1H-indazol-4-yl)benzamide] were 0.0631 µM and 0.00398 µM.
Taken in the same sequence, the figures for `FC(F)(F)c1cc(-c2cncc3ccccc23)c2cn[nH]c2c1` [Example 111, 4-(6-(trifluoromethyl)-1H-indazol-4-yl)isoquinoline] were 0.0501 µM and 0.0158 µM.
As for `FC(F)(F)c1cc(-c2ccnc3ccccc23)c2cn[nH]c2c1` [Example 112, 4-(6-(trifluoromethyl)-1H-indazol-4-yl)quinoline], the IC50 at human MetAP2 enzyme [1] was 0.0501 µM; against human MetAP2 enzyme [2], 0.0126 µM.
On the same counts, the results for `COc1ccc(-c2cc(C(F)(F)F)cc3[nH]ncc23)c2cccnc12` [Example 113, 8-methoxy-5-(6-(trifluoromethyl)-1H-indazol-4-yl)quinoline] are 0.02 µM and 0.00794 µM.
`CNC(=O)c1ccc(F)c(-c2cc(C(F)(F)F)cc3[nH]ncc23)c1` [Example 114, 4-fluoro-N-methyl-3-(6-(trifluoromethyl)-1H-indazol-4-yl)benzamide]: the results for the IC50 at human MetAP2 enzyme [1] and on human MetAP2 enzyme [2] were 0.0501 µM and 0.00631 µM, respectively.
On the same counts, the results for `CN(C)C(=O)c1cc(F)cc(-c2cc(C(F)(F)F)cc3[nH]ncc23)c1` [Example 115, 3-fluoro-N,N-dimethyl-5-(6-(trifluoromethyl)-1H-indazol-4-yl)benzamide] are 0.158 µM and 0.01 µM.
On the same counts, the results for `FC(F)(F)c1cc(-c2cnc(N3CCCC3)nc2)c2cn[nH]c2c1` [Example 116, 4-(2-(pyrrolidin-1-yl)pyrimidin-5-yl)-6-(trifluoromethyl)-1H-indazole] are 0.0398 µM and 0.00794 µM.
On the same counts, the results for `CNC(=O)c1ccc(-c2cc(C(F)(F)F)cc3[nH]ncc23)cc1` [Example 117, N-methyl-4-(6-(trifluoromethyl)-1H-indazol-4-yl)benzamide] are 0.0158 µM and 0.00316 µM.
With `FC(F)(F)c1cc(-c2cnc(N3CCOCC3)nc2)c2cn[nH]c2c1` [Example 118, 4-(5-(6-(trifluoromethyl)-1H-indazol-4-yl)pyrimidin-2-yl)morpholine], the IC50 was 0.0398 µM at human MetAP2 enzyme [1] and 0.00631 µM at human MetAP2 enzyme [2].
For `CN(C)C(=O)c1ccc(-c2cc(C(F)(F)F)cc3[nH]ncc23)cc1` [Example 119, N,N-dimethyl-4-(6-(trifluoromethyl)-1H-indazol-4-yl)benzamide], the IC50 at human MetAP2 enzyme [1] is 0.1 µM; against human MetAP2 enzyme [2], 0.00794 µM.
Taken in the same sequence, the figures for `Cc1nnc(-c2ccc(-c3cc(C(F)(F)F)cc4[nH]ncc34)cc2)o1` [Example 120, 2-methyl-5-(4-(6-(trifluoromethyl)-1H-indazol-4-yl)phenyl)-1,3,4-oxadiazole] were 0.0631 µM and 0.0158 µM.
Taken in the same sequence, the figures for `CN(C)C(=O)c1cccc(-c2cc(C(F)(F)F)cc3[nH]ncc23)c1` [Example 121, N,N-dimethyl-3-(6-(trifluoromethyl)-1H-indazol-4-yl)benzamide] were 0.0631 µM and 0.00631 µM.
On the same counts, the results for `CN1CCOc2cc(-c3cc(C(F)(F)F)cc4[nH]ncc34)cnc21` [Example 122, 4-methyl-7-(6-(trifluoromethyl)-1H-indazol-4-yl)-3,4-dihydro-2H-pyrido[3,2-b][1,4]oxazine] are 0.0398 µM and 0.0126 µM.
For the molecule `COc1nccc(C)c1-c1cc(C(F)(F)F)cc2[nH]ncc12` [Example 123, 4-(2-methoxy-4-methylpyridin-3-yl)-6-(trifluoromethyl)-1H-indazole], the results for the IC50 against human MetAP2 enzyme [1] and against human MetAP2 enzyme [2] were 0.0631 µM and 0.0316 µM, respectively.
For `COc1nccc(-c2cc(C(F)(F)F)cc3[nH]ncc23)c1Cl` [Example 124, 4-(3-chloro-2-methoxypyridin-4-yl)-6-(trifluoromethyl)-1H-indazole], the IC50 is 0.0631 µM against human MetAP2 enzyme [1] and 0.0158 µM on human MetAP2 enzyme [2].
On the same counts, the results for `Cc1cc(S(=O)(=O)N(C)C)ccc1-c1cc(C(F)(F)F)cc2[nH]ncc12` [Example 125, N,N,3-trimethyl-4-(6-(trifluoromethyl)-1H-indazol-4-yl)benzenesulfonamide] are 0.158 µM and 0.0316 µM.
On the same counts, the results for `Cc1cc(-c2cc(C(F)(F)F)cc3[nH]ncc23)n(C)n1` [Example 126, 4-(1,3-dimethyl-1H-pyrazol-5-yl)-6-(trifluoromethyl)-1H-indazole] are 0.0501 µM and 0.00794 µM.
Taken in the same sequence, the figures for `Cc1ccc(S(=O)(=O)N(C)C)cc1-c1cc(C(F)(F)F)cc2[nH]ncc12` [Example 127, N,N,4-trimethyl-3-(6-(trifluoromethyl)-1H-indazol-4-yl)benzenesulfonamide] were 0.0158 µM and 0.0126 µM.
For `OCc1ccc(Cl)c(-c2cc(C(F)(F)F)cc3[nH]ncc23)c1` [Example 128, (4-chloro-3-(6-(trifluoromethyl)-1H-indazol-4-yl)phenyl)methanol], the IC50 on human MetAP2 enzyme [1] is 0.0398 µM; against human MetAP2 enzyme [2], 0.0126 µM.
Taken in the same sequence, the figures for `O=C1Cc2c(cccc2-c2cc(C(F)(F)F)cc3[nH]ncc23)N1` [Example 129, 4-(6-(trifluoromethyl)-1H-indazol-4-yl)indolin-2-one] were 0.01 µM and 0.00398 µM.
Taken in the same sequence, the figures for `O=C(NCCO)c1ccc(-c2cc(C(F)(F)F)cc3[nH]ncc23)cc1` [Example 130, N-(2-hydroxyethyl)-4-(6-(trifluoromethyl)-1H-indazol-4-yl)benzamide] were 0.00794 µM and 0.00158 µM.
On the same counts, the results for `CCOc1ncccc1-c1cc(C(F)(F)F)cc2[nH]ncc12` [Example 133, 4-(2-ethoxypyridin-3-yl)-6-(trifluoromethyl)-1H-indazole] are 0.0631 µM and 0.01 µM.
Consider `CCCOc1ncccc1-c1cc(C(F)(F)F)cc2[nH]ncc12` [Example 134, 4-(2-propoxypyridin-3-yl)-6-(trifluoromethyl)-1H-indazole], for which the IC50 is 0.1 µM against human MetAP2 enzyme [1] and 0.0251 µM against human MetAP2 enzyme [2].
Consider `Cc1cccnc1-c1cc(C(F)(F)F)cc2[nH]ncc12` [Example 135, 4-(3-methylpyridin-2-yl)-6-(trifluoromethyl)-1H-indazole], for which the IC50 on human MetAP2 enzyme [1] is 0.158 µM; at human MetAP2 enzyme [2] it was 0.01 µM.
On the same counts, the results for `O=C1Cc2cccc(-c3cc(C(F)(F)F)cc4[nH]ncc34)c2N1` [Example 136, 7-(6-(trifluoromethyl)-1H-indazol-4-yl)indolin-2-one] are 0.158 µM and 0.0126 µM.
On to `Nc1ncc(Cl)cc1-c1cc(C(F)(F)F)cc2[nH]ncc12` [Example 137, 5-chloro-3-(6-(trifluoromethyl)-1H-indazol-4-yl)pyridin-2-amine], for which the IC50 on human MetAP2 enzyme [1] is 0.158 µM; on human MetAP2 enzyme [2], 0.01 µM.
For `O=C1COc2c(cccc2-c2cc(C(F)(F)F)cc3[nH]ncc23)N1` [Example 139, 8-(6-(trifluoromethyl)-1H-indazol-4-yl)-2H-benzo[b][1,4]oxazin-3(4H)-one], the IC50 at human MetAP2 enzyme [1] was 0.0398 µM; against human MetAP2 enzyme [2] it was 0.01 µM.
Taken in the same sequence, the figures for `N#Cc1ccc(CO)c(-c2cc(C(F)(F)F)cc3[nH]ncc23)c1` [Example 140, 4-(hydroxymethyl)-3-(6-(trifluoromethyl)-1H-indazol-4-yl)benzonitrile] were 0.0316 µM and 0.00398 µM.
On the same counts, the results for `O=C1NCc2c1cccc2-c1cc(C(F)(F)F)cc2[nH]ncc12` [Example 141, 4-(6-(trifluoromethyl)-1H-indazol-4-yl)isoindolin-1-one] are 0.0126 µM and 0.00501 µM.
As to `Nc1ncc(-c2cc(C(F)(F)F)cc3[nH]ncc23)c2cccnc12` [Example 142, 5-(6-(trifluoromethyl)-1H-indazol-4-yl)-1,7-naphthyridin-8-amine], the IC50 against human MetAP2 enzyme [1] is 0.0251 µM; against human MetAP2 enzyme [2] it was 0.00794 µM.
Turning to `CC(C)Oc1ncccc1-c1cc(C(F)(F)F)cc2[nH]ncc12` [Example 143, 4-(2-isopropoxypyridin-3-yl)-6-(trifluoromethyl)-1H-indazole], the IC50 on human MetAP2 enzyme [1] is 0.0631 µM; against human MetAP2 enzyme [2] it was 0.0158 µM.

The record behind these values is patent US9434743B2, “Indazole derivatives” (TAKEDA PHARMACEUTICAL COMPANY LIMITED, priority 2012, dated 2016).
